Results reported in patent US11753407B2, “Compounds for treating spinal muscular atrophy” (PTC Therapeutics, Inc., priority 2012, dated 2023).

Tests used:
[1] = tested on: SMN2 minigene mRNA (SMN2-A minigene) in HEK293H cells; experiment: SMN2 minigene mRNA splicing RT-qPCR assay in cultured cells; format: cell-based, human; settings: Homo sapiens, HEK293-H; concentration increasing full length SMN2 mRNA 1.5-fold relative to vehicle-treated cells; HEK293H cells with SMN2-A minigene, 24 hours, 7-point concentration data; read-out: EC1.5x for production of full length SMN2 mRNA
How it was run: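 EC1.5× values derive from a 24 h treatment of SMN2-A minigene HEK293H cells and GAPDH-normalized RT-qPCR of exon 7-included minigene mRNA relative to vehicle-treated cells.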

[2] = tested on: Smn protein in SMA patient fibroblast cells (GM03813); experiment: Smn protein assay in cultured cells (SMN HTRF); format: cell-based, human; settings: SMA patient fibroblast cells, 48 hours; for EC1.5x for Smn protein expression: 7-point concentration curve, SMN HTRF, concentration producing 1.5 times Smn protein vs DMSO vehicle control; for maximum fold (Fold) increase of Smn protein: 7-point concentration data, fold relative to vehicle control
How it was run: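 Cells were cultured 72 h, seeded at 5,000/well and dosed with seven concentrations (3.16-fold apart) for 48 h. HTRF on lysates, read at 665 and 620 nm, gave blank-corrected ΔF values relative to DMSO. Potency is reported as EC1.5×, efficacy as maximal fold Smn increase.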

| Compound | melting point [°C] | EC (1.5-fold increase) [1] [µM] | EC1.5x for Smn protein expression [2] | maximum fold (Fold) increase of Smn protein [2] |
| --- | --- | --- | --- | --- |
| Cc1cc2cc(-c3cc(=O)n4cc(N5C[C@@H](C)N[C@@H](C)C5)ccc4n3)oc2c(C)n1 [Compound 527, 2-(5,7-dimethylfuro[2,3-c]pyridin-2-yl)-7-[(3R,5S)-3,5-dimethylpiperazin-1-yl]-4H-pyrido[1,2-a]pyrimidin-4-one] | 260 to 262 | < 0.1 | **** (an EC1.5x≤0.3 μM is indicated by four stars (****)) | ***** (a fold increase >1.65 is indicated by five stars (*****)) |
| Cc1cc2cc(-c3cc(=O)n4cc(N5CCC(N(C)C)CC5)ccc4n3)oc2c(C)n1 [Compound 528, 7-[4-(dimethylamino)piperidin-1-yl]-2-(5,7-dimethylfuro[2,3-c]pyridin-2-yl)-4H-pyrido[1,2-a]pyrimidin-4-one] | 200 to 202 | < 0.1 | **** (an EC1.5x≤0.3 μM is indicated by four stars (****)) | **** (a fold increase between >1.5 and ≤1.65 is indicated by four stars (****)) |
| Cc1cc2cc(-c3cc(=O)n4cc(N5CCN(CCO)CC5)ccc4n3)oc2c(C)n1 [Compound 529, 2-(5,7-dimethylfuro[2,3-c]pyridin-2-yl)-7-[4-(2-hydroxyethyl)piperazin-1-yl]-4H-pyrido[1,2-a]pyrimidin-4-one] | 256 to 258 | < 0.1 | *** (an EC1.5× between >0.3 μM and ≤1 μM is indicated by three stars (***)) | ***** (a fold increase >1.65 is indicated by five stars (*****)) |
| Cc1cn2nc(-c3cc(=O)n4cc(C5CCN(CCO)CC5)ccc4n3)cc2c(C)n1 [Compound 530, 2-(4,6-dimethylpyrazolo[1,5-a]pyrazin-2-yl)-7-[1-(2-hydroxyethyl)piperidin-4-yl]-4H-pyrido[1,2-a]pyrimidin-4-one] | 228 to 230 | < 0.1 | **** (an EC1.5x≤0.3 μM is indicated by four stars (****)) | ***** (a fold increase >1.65 is indicated by five stars (*****)) |
| Cc1cn2nc(-c3cc(=O)n4cc(N5CCN(CCO)CC5)ccc4n3)cc2c(C)n1 [Compound 531, 2-(4,6-dimethylpyrazolo[1,5-a]pyrazin-2-yl)-7-[4-(2-hydroxyethyl)piperazin-1-yl]-4H-pyrido[1,2-a]pyrimidin-4-one] | 246 to 248 | 0.1 to 0.3 | *** (an EC1.5× between >0.3 μM and ≤1 μM is indicated by three stars (***)) | ***** (a fold increase >1.65 is indicated by five stars (*****)) |
| Cc1cn2nc(-c3cc(=O)n4cc(N5CCN(CCO)[C@H](C)C5)ccc4n3)cc2c(C)n1 [Compound 532, 2-(4,6-dimethylpyrazolo[1,5-a]pyrazin-2-yl)-7-[(3R)-4-(2-hydroxyethyl)-3-methylpiperazin-1-yl]-4H-pyrido[1,2-a]pyrimidin-4-one] | 238 to 240 | < 0.1 | **** (an EC1.5x≤0.3 μM is indicated by four stars (****)) | ***** (a fold increase >1.65 is indicated by five stars (*****)) |
| COCCN1CCN(c2ccc3nc(-c4cc(Cl)c5nc(C)cn5c4)cc(=O)n3c2)C[C@@H]1C [Compound 533, 2-(8-chloro-2-methylimidazo[1,2-a]pyridin-6-yl)-7-[(3S)-4-(2-methoxyethyl)-3-methylpiperazin-1-yl]-4H-pyrido[1,2-a]pyrimidin-4-one] | 179 to 183 | < 0.1 | *** (an EC1.5× between >0.3 μM and ≤1 μM is indicated by three stars (***)) | ***** (a fold increase >1.65 is indicated by five stars (*****)) |
| Cc1cn2cc(-c3cc(=O)n4cc(N5CCN(CCOCCO)[C@@H](C)C5)ccc4n3)cc(Cl)c2n1 [Compound 534, 2-(8-chloro-2-methylimidazo[1,2-a]pyridin-6-yl)-7-{(3S)-4-[2-(2-hydroxyethoxy)ethyl]-3-methylpiperazin-1-yl}-4H-pyrido[1,2-a]pyrimidin-4-one] | 201 to 205 | < 0.1 | **** (an EC1.5x≤0.3 μM is indicated by four stars (****)) | ***** (a fold increase >1.65 is indicated by five stars (*****)) |

Second part, led by results:

| melting point [°C] | Compound | EC (1.5-fold increase) [1] [µM] | EC1.5x for Smn protein expression [2] | maximum fold (Fold) increase of Smn protein [2] |
| --- | --- | --- | --- | --- |
| 253 to 257 | Cc1cn2cc(-c3cc(=O)n4cc(N5CCN(C6CC6)[C@@H](C)C5)ccc4n3)cc(Cl)c2n1 [Compound 535, 2-(8-chloro-2-methylimidazo[1,2-a]pyridin-6-yl)-7-[(3S)-4-cyclopropyl-3-methylpiperazin-1-yl]-4H-pyrido[1,2-a]pyrimidin-4-one] | < 0.1 | *** (an EC1.5× between >0.3 μM and ≤1 μM is indicated by three stars (***)) | ***** (a fold increase >1.65 is indicated by five stars (*****)) |
| 228 to 232 | Cc1cn2cc(-c3cc(=O)n4cc(N5CCN(C6CCC6)[C@@H](C)C5)ccc4n3)cc(Cl)c2n1 [Compound 536, 2-(8-chloro-2-methylimidazo[1,2-a]pyridin-6-yl)-7-[(3S)-4-cyclobutyl-3-methylpiperazin-1-yl]-4H-pyrido[1,2-a]pyrimidin-4-one] | < 0.1 | **** (an EC1.5x≤0.3 μM is indicated by four stars (****)) | **** (a fold increase between >1.5 and ≤1.65 is indicated by four stars (****)) |
| 228 to 234 | Cc1cn2cc(-c3cc(=O)n4cc(N5CCN(CCO)[C@@H](C)C5)ccc4n3)cc(Cl)c2n1 [Compound 537, 2-(8-chloro-2-methylimidazo[1,2-a]pyridin-6-yl)-7-[(3S)-4-(2-hydroxyethyl)-3-methylpiperazin-1-yl]-4H-pyrido[1,2-a]pyrimidin-4-one] | < 0.1 | **** (an EC1.5x≤0.3 μM is indicated by four stars (****)) | **** (a fold increase between >1.5 and ≤1.65 is indicated by four stars (****)) |
| 215 to 219 | COCCN1CCN(c2ccc3nc(-c4cc(F)c5nc(C)cn5c4)cc(=O)n3c2)C[C@@H]1C [Compound 538, 2-(8-fluoro-2-methylimidazo[1,2-a]pyridin-6-yl)-7-[(3S)-4-(2-methoxyethyl)-3-methylpiperazin-1-yl]-4H-pyrido[1,2-a]pyrimidin-4-one] | < 0.1 | *** (an EC1.5× between >0.3 μM and ≤1 μM is indicated by three stars (***)) | **** (a fold increase between >1.5 and ≤1.65 is indicated by four stars (****)) |
| 270 to 274 | Cc1cn2cc(-c3cc(=O)n4cc(N5CCN(CCO)[C@@H](C)C5)ccc4n3)cc(F)c2n1 [Compound 539, 2-(8-fluoro-2-methylimidazo[1,2-a]pyridin-6-yl)-7-[(3S)-4-(2-hydroxyethyl)-3-methylpiperazin-1-yl]-4H-pyrido[1,2-a]pyrimidin-4-one] | < 0.1 | **** (an EC1.5x≤0.3 μM is indicated by four stars (****)) | **** (a fold increase between >1.5 and ≤1.65 is indicated by four stars (****)) |
